Test results: patent publication US4533675A (priority 1984, dated 1985)
Where two headings read alike, the source gives them in different places.

What was measured:
[1] = ip injection, data from Brossi et al., J. Med. Chem., 26:1365 (1983); cited from earlier work
[2] = tested on: tubulin protein; test: Tubulin binding in vitro
[3] = LD50 in mice after ip injection; format: in vivo

COc1cc2c(c(OC)c1OC)-c1ccc(OC)c(=O)cc1[C@@H](NC(C)=O)CC2 [Colchicine, colchicine]
LD50 in Mice after ip inj [1]: 3.0 mg/kg

CCOC(=O)N[C@H]1CCc2cc(OC)c(OC)c(OC)c2-c2ccc(SC)c(=O)cc21 [Et H SMe]
Tubulin Binding in vitro [2]: 96 | LD50 in Mice after ip inj [3]: 77.1 mg/kg

COc1cc2c(c(OC)c1OC)-c1ccc(SC)c(=O)cc1[C@@H](NC(=O)Oc1ccccc1)CC2 [Ph H SMe, N-Phenoxycarbonyl-deacetylthiocolchicine]
LD50 ([3]; mouse, in vivo, read-out: LD50 in Mice after ip inj): 50 mg/kg
